Assay results: patent US11912693B2, “Compounds for modulating S1P1 activity and methods of using the same” (TREVENA, INC., priority 2017, dated 2024)

How the values were obtained:
[1] = target: T1, human sphingosine-1-phosphate receptor 1 (S1P1) (Homo sapiens (Human), UniProt P21453); experiment: Inhibition of cAMP production (HTRF cAMP HiRange), S1P1 CHO-K1 cells; assay type: cell-based; conditions: for hS1P1 cAMP pEC50: inhibition of cAMP production, S1P1 CHO-K1 cells; for Emax: CHO-K1, read-out: hS1P1 cAMP SPAN
Procedure, shortened: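 CHO-K1 cells stably co-expressing human S1P1 (C-terminal Prolink tag) and EA-β-arrestin2 were grown in AssayComplete Media 6 at 37° C. and 5% CO2, plated, and incubated overnight. Agonist-driven inhibition of intracellular cAMP was read by TR-FRET with the HTRF cAMP HiRange kit on a PheraStar reader. Potency is pEC50, and efficacy (SPAN) is normalized to fingolimod.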
Target sequence in this assay (P21453 whole entry, looked up): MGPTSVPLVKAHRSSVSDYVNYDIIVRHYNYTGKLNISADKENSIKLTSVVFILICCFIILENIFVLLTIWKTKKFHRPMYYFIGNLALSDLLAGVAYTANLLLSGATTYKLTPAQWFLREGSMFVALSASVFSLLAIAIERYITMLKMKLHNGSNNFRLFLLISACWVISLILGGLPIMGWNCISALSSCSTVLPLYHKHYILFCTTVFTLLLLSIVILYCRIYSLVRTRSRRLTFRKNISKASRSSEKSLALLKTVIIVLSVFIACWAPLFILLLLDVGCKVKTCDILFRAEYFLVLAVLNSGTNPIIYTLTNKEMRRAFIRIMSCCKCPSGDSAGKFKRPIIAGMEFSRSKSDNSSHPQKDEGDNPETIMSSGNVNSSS

[2] = target: T1, human sphingosine-1-phosphate receptor 1 (S1P1); experiment: β-Arrestin2 recruitment assay (PathHunter), S1P1 CHO-K1 cells; assay type: cell-based; conditions: for hS1P1 B-arrestin2 pEC50: β-arrestin2 recruitment, S1P1 CHO-K1 cells; for Emax: CHO-K1, read-out: hS1P1 B-arrestin2 SPAN
Procedure, shortened: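 Enzyme-fragment complementation read-out: agonist-driven β-arrestin2 binding to ProLink-tagged human S1P1 in stable CHO-K1 cells restores β-galactosidase, measured 1 h at room temperature after a 60 min 37° C. compound incubation. Potency as pEC50, efficacy relative to fingolimod (SPAN).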
Target sequence in this assay (P21453 whole entry, looked up): as above
Target sequence in this assay (P32121 whole entry partner, looked up): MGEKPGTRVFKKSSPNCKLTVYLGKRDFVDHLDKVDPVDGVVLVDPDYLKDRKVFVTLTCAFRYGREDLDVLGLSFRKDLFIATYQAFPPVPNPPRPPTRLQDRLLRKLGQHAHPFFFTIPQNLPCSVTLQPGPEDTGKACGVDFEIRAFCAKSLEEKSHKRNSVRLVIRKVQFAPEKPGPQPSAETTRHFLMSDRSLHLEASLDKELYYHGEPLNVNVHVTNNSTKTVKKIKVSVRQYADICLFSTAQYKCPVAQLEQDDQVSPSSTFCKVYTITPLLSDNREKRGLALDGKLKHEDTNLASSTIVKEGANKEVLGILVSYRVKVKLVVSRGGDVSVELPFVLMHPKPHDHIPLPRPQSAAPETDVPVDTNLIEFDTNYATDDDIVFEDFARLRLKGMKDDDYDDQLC

[3] = efficacy (SPAN) normalized to fingolimod

Row | SMILES | hS1P1 cAMP pEC50 [1] | hS1P1 B-arrestin2 pEC50 [2] | Emax [1, 3] [%] | Emax [2, 3] [%] | hS1P1 cAMP SPAN [1, 3] | hS1P1 B-arrestin2 SPAN [2, 3]
1 | COc1ccccc1-c1nnc(-c2ccc3c(c2)nnn3C(C)C)s1 [Compound 144, 5-[5-(2-methoxyphenyl)-1,3,4-thiadiazol-2-yl]-1-(propan-2-yl)-1H-1,2,3-benzotriazole] | <6.5 | >5 |  |  |  | 
2 | C=CCNc1ccc(-c2nc(-c3ccc4[nH]nnc4c3)no2)cc1C#N [Compound 145, 5-(3-(1H-benzo[d][1,2,3]triazol-5-yl)-1,2,4-oxadiazol-5-yl)-2-(allylamino)benzonitrile] | >6.5 | >5 |  |  |  | 
3 | CCC1(CC)CC(=O)c2cc(-c3nc(-c4ccnc(F)c4)no3)ccc2O1 [Compound 146, 2,2-diethyl-6-(3-(2-fluoropyridin-4-yl)-1,2,4-oxadiazol-5-yl)chroman-4-one] | >6.5 | >5 | > 75 | < 75 |  | 
4 | O=C1CC2(CCOCC2)Oc2ccc(-c3nc(-c4ccncc4)no3)cc21 [Compound 148, 6-[3-(pyridin-4-yl)-1,2,4-oxadiazol-5-yl]-3,4-dihydrospiro[1-benzopyran-2,4′-oxane]-4-one] | <6.5 | <5 |  |  |  | 
5 | C=CCNc1ccc(-c2nc(-c3ccc4c(c3)nnn4C(C)C)no2)cc1C#N [Compound 150, 2-(allylamino)-5-(3-(1-isopropyl-1H-benzo[d][1,2,3]triazol-5-yl)-1,2,4-oxadiazol-5-yl)benzonitrile] | >6.5 | >5 | > 75 | > 75 |  | 
6 | CCC1(CC)CC(=O)c2cc(-c3nc(-c4ccc(C(=O)N(C)C)cc4)no3)ccc2O1 [Compound 151, 4-(5-(2,2-diethyl-4-oxochroman-6-yl)-1,2,4-oxadiazol-3-yl)-N,N-dimethylbenzamide] | <6.5 | <5 |  |  | >75 | >75
7 | CCC1(CC)CC(=O)c2cc(-c3nc(-c4ccc(NC)cc4)no3)ccc2O1 [Compound 153, 2,2-diethyl-6-(3-(4-(methylamino)phenyl)-1,2,4-oxadiazol-5-yl)chroman-4-one] | <6.5 | >5 | > 75 | < 75 |  | 
8 | Cc1ccccc1C(C)c1noc(-c2ccc3c(c2)nnn3CC(C)C)n1 (stereo not drawn) [Compound 154, 5-{3-[1-(2-methylphenyl)ethyl]-1,2,4-oxadiazol-5-yl}-1-(2-methylpropyl)-1H-1,2,3-benzotriazole] | <6.5 | <5 |  |  |  | 
9 | COc1cc(-c2noc(-c3ccc4c(c3)nnn4C3CC3)n2)ccn1 [Compound 155, 1-cyclopropyl-5-[3-(2-methoxypyridin-4-yl)-1,2,4-oxadiazol-5-yl]-1H-1,2,3-benzotriazole] | <6.5 | <5 |  |  |  | 
10 | Cc1cc(-c2nc(-c3ccc4c(c3)nnn4C(C)C)no2)cc(C)n1 [Compound 156, 5-(2,6-dimethylpyridin-4-yl)-3-(1-isopropyl-1H-benzo[d][1,2,3]triazol-5-yl)-1,2,4-oxadiazole] | >6.5 | >5 | > 75 | > 75 |  | 
11 | Cc1cnc(-c2noc(-c3ccc4c(c3)nnn4C(C)C)n2)cn1 [Compound 157, 5-[3-(5-methylpyrazin-2-yl)-1,2,4-oxadiazol-5-yl]-1-(propan-2-yl)-1H-1,2,3-benzotriazole] | <6.5 | <5 |  |  |  | 
12 | Cc1cc(C)cc(-c2noc(-c3ccc4c(c3)nnn4C3CCCCC3)n2)c1 [Compound 158, 1-cyclohexyl-5-[3-(3,5-dimethylphenyl)-1,2,4-oxadiazol-5-yl]-1H-1,2,3-benzotriazole] | <6.5 | <5 | < 75 | < 75 |  | 
13 | Cc1cncc(-c2nc(-c3ccc4c(c3)nnn4C(C)C)no2)c1 [Compound 159, 3-(1-isopropyl-1H-benzo[d][1,2,3]triazol-5-yl)-5-(5-methylpyridin-3-yl)-1,2,4-oxadiazole] | <6.5 | <5 |  |  |  | 
14 | CCCn1nnc2cc(-c3nc(-c4ccccc4)no3)ccc21 [Compound 160, 5-(3-phenyl-1,2,4-oxadiazol-5-yl)-1-propyl-1H-1,2,3-benzotriazole] | <6.5 | <5 |  |  |  | 
15 | COC(=O)CCn1nnc2cc(-c3noc(-c4ccccc4Br)n3)ccc21 [Compound 161, methyl 3-(5-(5-(2-bromophenyl)-1,2,4-oxadiazol-3-yl)-1H-benzo[d][1,2,3]triazol-1-yl)propanoate] | <6.5 | <5 |  |  |  | 
16 | Cc1ccccc1-c1nc(-c2ccc3c(c2)nnn3C2CCCC2)no1 [Compound 162, 3-(1-cyclopentyl-1H-benzo[d][1,2,3]triazol-5-yl)-5-(o-tolyl)-1,2,4-oxadiazole] | <6.5 | >5 |  |  |  | 

Row | SMILES | hS1P1 cAMP pEC50 [1] | hS1P1 B-arrestin2 pEC50 [2] | Emax [1, 3] [%] | Emax [2, 3] [%] | hS1P1 cAMP SPAN [1, 3] | hS1P1 B-arrestin2 SPAN [2, 3]
17 | CC(C)n1nnc2cc(-c3nc(-c4ccccc4Cl)co3)ccc21 [Compound 163] |  |  | > 75 | > 75 |  | 
18 | Cc1ccc(-c2noc(-c3ccc4c(c3)nnn4C3CCCC3)n2)cc1 [Compound 164, 1-cyclopentyl-5-[3-(4-methylphenyl)-1,2,4-oxadiazol-5-yl]-1H-1,2,3-benzotriazole] | <6.5 | <5 |  |  |  | 
19 | CC(C)n1nnc2cc(-c3nc(-c4cccnc4)no3)ccc21 [Compound 165, 1-(propan-2-yl)-5-[3-(pyridin-3-yl)-1,2,4-oxadiazol-5-yl]-1H-1,2,3-benzotriazole] | <6.5 | <5 |  |  |  | 
20 | Cc1ccc(-c2nc(-c3ccc4c(c3)nnn4C(C)C)no2)c(C)c1 [Compound 166, 5-(2,4-dimethylphenyl)-3-(1-isopropyl-1H-benzo[d][1,2,3]triazol-5-yl)-1,2,4-oxadiazole] | <6.5 | <5 |  |  |  | 
21 | CC(C)c1cc(-c2nc(-c3ccc4c(c3)nnn4C(C)C)no2)ccn1 [Compound 167, 3-(1-isopropyl-1H-benzo[d][1,2,3]triazol-5-yl)-5-(2-isopropylpyridin-4-yl)-1,2,4-oxadiazole] | <6.5 | <5 |  |  |  | 
22 | CC(C)n1nnc2cc(-c3nc(-c4ccc5ccccc5n4)no3)ccc21 [Compound 168, 2-{5-[1-(propan-2-yl)-1H-1,2,3-benzotriazol-5-yl]-1,2,4-oxadiazol-3-yl}quinoline] | <6.5 | <5 | < 75 | < 75 |  | 
23 | CC(C)n1nnc2cc(-c3nc(-c4ccc(Cl)s4)no3)ccc21 [Compound 170, 5-[3-(5-chlorothiophen-2-yl)-1,2,4-oxadiazol-5-yl]-1-(propan-2-yl)-1H-1,2,3-benzotriazole] | <6.5 | <5 | < 75 | < 75 |  | 
24 | Cc1ccccc1-c1noc(-c2ccc3c(c2)nnn3C2CC2)n1 [Compound 171, 1-cyclopropyl-5-[3-(2-methylphenyl)-1,2,4-oxadiazol-5-yl]-1H-1,2,3-benzotriazole] | >6.5 | >5 |  |  |  | 
25 | Cc1ccccc1C(C)c1noc(-c2ccc3c(c2)nnn3C(C)C)n1 (stereo not drawn) [Compound 172, 5-{3-[1-(2-methylphenyl)ethyl]-1,2,4-oxadiazol-5-yl}-1-(propan-2-yl)-1H-1,2,3-benzotriazole] | <6.5 | <5 | < 75 | < 75 |  | 
26 | COc1ccccc1-c1noc(-c2ccc3c(c2)nnn3C2CC2)n1 [Compound 173, 1-cyclopropyl-5-[3-(2-methoxyphenyl)-1,2,4-oxadiazol-5-yl]-1H-1,2,3-benzotriazole] | >6.5 | >5 | > 75 | > 75 |  | 
27 | c1cc(-c2noc(-c3ccc4c(c3)nnn4C3CCCC3)n2)ccn1 [Compound 174, 1-cyclopentyl-5-[3-(pyridin-4-yl)-1,2,4-oxadiazol-5-yl]-1H-1,2,3-benzotriazole] | >6.5 | <5 | > 75 | > 75 |  | 
28 | Cc1ccccc1-c1noc(-c2ccc3c(c2)nnn3C2CCCC2)n1 [Compound 175, 1-cyclopentyl-5-[3-(2-methylphenyl)-1,2,4-oxadiazol-5-yl]-1H-1,2,3-benzotriazole] | >6.5 | >5 | > 75 | > 75 |  | 
29 | O=C1CC2(CCCC2)Oc2ccc(-c3nc(-c4ccncc4)no3)cc21 [Compound 176, 6-[3-(pyridin-4-yl)-1,2,4-oxadiazol-5-yl]-3,4-dihydrospiro[1-benzopyran-2,1′-cyclopentane]-4-one] | <6.5 | <5 | > 75 | < 75 |  | 
30 | CCC1(CC)CC(=O)c2cc(-c3nnc(-c4ccccc4OC)s3)ccc2O1 [Compound 178, 2,2-diethyl-6-(5-(2-methoxyphenyl)-1,3,4-thiadiazol-2-yl)chroman-4-one] | <6.5 | >5 | > 75 | < 75 |  | 
31 | CC(C)n1nnc2cc(-c3nc(-c4ccccc4O)no3)ccc21 [Compound 180, 2-(5-(1-isopropyl-1H-benzo[d][1,2,3]triazol-5-yl)-1,2,4-oxadiazol-3-yl)phenol] | <6.5 | <5 |  |  |  | 
